The test system of one experiment is apo E −/− mice. The experiment in a line: Subcutaneous immunization of apo E −/− mice with peptide test articles, plaque size in en face aorta. The format is in vivo. The source says:
Inhibition of atherosclerosis in apo E −/− mice by immunization with fifteen different test articles based on fifteen different peptide fragments of apo B was investigated.
In these experiments, apo E −/− mice received primary subcutaneous immunization at 6-7 weeks of age, followed by two boosters administered […]. The mice were fed a high cholesterol diet from 1 week after the second injection (10 weeks of age) and continued until sacrifice at 25 weeks of age. The effect of immunization on atherosclerosis formation was assessed by measuring plaque size (percent area stained with Oil Red O) in an en face preparation of the aorta.
Based on the results from these and other experiments, four peptides were identified as particularly effective in reducing the progression of atherosclerosis.

A further experiment has as its system mouse LDL. The experiment in a line: ELISA of sera for antibodies to mouse LDL. Type of experiment: in vivo. Particulars: parenteral immunization; data not shown. The method, then: ELISA methods were used to quantitate serum Ig isotypes specific for the apoB-100 peptide as well as total IgG and IgM as previously described (ref. 19). Sera from immunized mice were tested for antibodies to mouse LDL by incubation (1/50, 1/150 and 1/450 dilutions) in plates coated with mouse LDL (10 μg/ml) and using alkaline phosphatase-conjugated anti-mouse-IgG as detector antibody. Sera from C57BL/6 mice immunized with OVA-CTB were assayed for reactivity to mouse or human LDL, or to apoB100, at dilutions of 1/25, 1/250 and 1/2500.

[1] abbreviates: subcutaneous immunization at 6-7 weeks, boosters 3 and 5 weeks later, high cholesterol diet, plaque size (percent area Oil Red O) at 25 weeks.

Turning to “ATRFK HLRKY TYNYE AESSS (ATRFKHLRKYTYNYEAESSS; Apolipoprotein B-100; UniProt P04114 43-62, looked up, fragment) [Peptide P2]”, the “Reduction in atherosclerosis progression” value in the experiment on apo E −/− mice (setting [1]) was “(−42%, p < 0.05)”.
For “IEIGL EGKGF EPTLE ALFGK (IEIGLEGKGFEPTLEALFGK) [Peptide P45]”, the “Reduction in atherosclerosis progression” value in the experiment with apo E −/− mice (setting [1]) is “(−53%, p < 0.05)”.
“KTTKQ SFDLS VKAQY KKNKH (KTTKQSFDLSVKAQYKKNKH) [Peptide P210]”: in the experiment on apo E −/− mice (setting [1]), the “Reduction in atherosclerosis progression” value is on record as “(−49%, p = 0.06)”.
Turning to SLTST SDLQS GIIKN TASLK [Peptide P102], in the experiment with apo E −/− mice (mouse, in vivo, sc), the “Reduction in atherosclerosis progression” value is on record as “(−52%, p < 0.05)”.
On to ovalbumin, for which the “IgG antibody responses to mouse LDL” value in the experiment on mouse LDL is “did not lead to induction of significant IgG antibody responses”.

(Values after US8506964B2, “Fusion proteins and related compositions, methods and systems for treatment and/or prevention of atherosclerosis” (priority 2010, dated 2013).)
